From patent US9238626B2 (priority 2012, dated 2016) come the findings set out here.

Structures can show the parent of a compound that is named as a salt.

In test [1] the target is Electrophorus electricus (ee) AChE (Electrophorus electricus (Electric eel) (Gymnotus electricus), UniProt O42275). In words: AChE inhibition assay (Ellman), eeAChE. It counts as biochemical. The protocol:
AChE inhibitory activity of compounds (Ia)-(Ie) and (−)-(Ib) and (+)-(Ib) was evaluated spectrophotometrically at 25° C. by the method of Ellman et al., using recombinant human AChE (hAChE) and Electrophorus electricus (ee) AChE and acetylthiocholine iodide as substrate (cf. G. L. Ellman et al., “New and Rapid Colorimetric Determination of Acetylcholinesterase Activity” Biochem. Pharmacol. 1961, vol. 7, pp. 88-95). For eeAChE inhibitory activity determination, the reaction took place in a final volume of 300 μL of 0.1 M phosphate-buffered solution pH 8.0, containing 0.03 unit/mL of ee AChE and 333 μM 5,5′-dithiobis(2-nitrobenzoic) acid (DTNB) solution used to produce the yellow anion of 5-thio-2-nitrobenzoic acid. Inhibition curves were performed in duplicates using at least 10 increasing concentrations of inhibitor and preincubating at 37° C. for 20 min. One duplicate sample without inhibitor was always present to yield 100% of AChE activity. Then, substrate acetylthiocholine (450 μM) was added and the reaction was developed at 37° C. for 5 min. The color production was measured at 414 nm.
Results are expressed as mean±S.E.M. of at least 4 experiments performed in duplicate. DTNB, acetylthiocholine, butyrylthiocholine, and enzymes were purchased from Sigma.

Test [2] concerns hippocampal slices treated with Aβ oligomers. As to the kind of experiment: Synaptic protein levels of hippocampal slices in the presence of Aβ oligomers (western blot). It counts as cell-based, C57bl6 mice. Conditions: co-treatment with Aβ oligomers, 1 h. Here is the method: The hippocampus of treated or control transgenic mice were dissected on ice and immediately frozen at −150° C. or processed. Briefly, hippocampal tissue were homogenized in RIPA buffer (50 mM Tris-Cl, pH 7.5, 150 mM NaCl, 1% NP-40, 0.5% sodium deoxycholate, and 1% SDS) supplemented with a protease inhibitor cocktail (Sigma-Aldrich P8340) and phosphatase inhibitors (50 mM NaF, 1 mM Na3VO4 and 30 μM Na4P207) using a Potter homogenizator and then passed sequentially through different caliber syringes. Protein samples were centrifuged at 14000 rpm at 4° C. twice for 10 min. Protein concentration was determined using the BCA Protein Assay Kit (Pierce Biotechnology, Rockford, Ill.). 20 and 40 micrograms of hippocampal samples were resolved by 10% SDS-PAGE, transferred to a PVDF membrane. The reactions were followed by incubation with primary antibodies, secondary antibodies anti-mouse, anti-goat or anti-rabbit IgG peroxidase conjugated (Pierce) and developed using an ECL kit (Western Lightning Plus ECL, Perkin Elmer).
In slices co-treated with (−)-(Ib) (FIG. 4A), the neuroprotective effect of the compound was observed.

For the next test, the system named is APP-PS1 mice. In words: Neuroinflammation (astrogliosis, anti-GFAP immunostaining) in APP-PS1 mice. It counts as in vivo, mouse.
The mark [3] stands for this setting: 7-month-old APP-PS1 mice, FIG. 9A.
[4] abbreviates: 11-month-old APP-PS1 mice, FIG. 9B.

Chain of Electrophorus electricus (ee) AChE (O42275 whole entry, looked up): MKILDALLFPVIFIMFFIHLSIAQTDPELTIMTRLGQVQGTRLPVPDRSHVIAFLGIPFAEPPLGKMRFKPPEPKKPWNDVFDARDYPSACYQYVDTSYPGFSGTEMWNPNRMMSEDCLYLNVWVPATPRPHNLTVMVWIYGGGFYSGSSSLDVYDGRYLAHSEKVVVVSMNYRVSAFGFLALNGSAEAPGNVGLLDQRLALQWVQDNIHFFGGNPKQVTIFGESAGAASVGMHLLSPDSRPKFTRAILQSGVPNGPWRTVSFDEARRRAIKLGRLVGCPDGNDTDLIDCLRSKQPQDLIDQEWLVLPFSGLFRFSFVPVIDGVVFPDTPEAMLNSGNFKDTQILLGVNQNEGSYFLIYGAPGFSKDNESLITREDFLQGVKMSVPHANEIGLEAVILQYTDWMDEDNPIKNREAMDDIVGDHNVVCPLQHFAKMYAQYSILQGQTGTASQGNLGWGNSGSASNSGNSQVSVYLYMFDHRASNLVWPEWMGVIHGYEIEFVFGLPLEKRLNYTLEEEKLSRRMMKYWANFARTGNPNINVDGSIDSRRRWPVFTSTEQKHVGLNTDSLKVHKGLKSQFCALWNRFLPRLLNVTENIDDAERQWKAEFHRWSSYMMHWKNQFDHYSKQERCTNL

`CC1=C[C@H]2Cc3nc4cc(Cl)ccc4c(NCCCCCCCCCNC(=O)c4cc(O)c5c(c4)C(=O)c4cccc(O)c4C5=O)c3[C@@H](C1)C2` [(+)-(Ib)•HCl, (+)-(7R,11R)—N-{9-[(3-chloro-6,7,10,11-tetrahydro-9-methyl-7,11-methanocycloocta[b]quinolin-12-yl)amino]nonyl}-9,10-dihydro-4,5-dihydroxy-9,10-dioxoanthracene-2-carboxamide] displayed a concentration for half-maximal inhibition (IC50) in test [1] of 98.9 ± 14.2 nM. Moreover, in test [2], the GluA2 protein level result was “increased levels of total protein with every concentration used”, the PSD95 protein level result was “increased levels of total protein with every concentration used”, the SYN protein level entry is on record as “increased levels of total protein with every concentration used” and the VGlut1 protein level entry is given as “no changes”. In addition, the “synaptophysin (SYP) protein level” value in test [2] was “no changes”. The “area occupied by hyper-reactive astrocytes (GFAP), inflammatory response” value (“area occupied” for short) in the test on APP-PS1 mice (setting [3]) was “decrease in the inflammatory response”. The “area occupied” value with APP-PS1 mice (setting [4]) was “decrease in the inflammatory response”.

In test [1], `CC1=C[C@@H]2Cc3nc4cc(Cl)ccc4c(NCCCCCCCCCNC(=O)c4cc(O)c5c(c4)C(=O)c4cccc(O)c4C5=O)c3[C@H](C1)C2` [(−)-(Ib)•HCl, (−)-(7S,11S)—N-{9-[(3-chloro-6,7,10,11-tetrahydro-9-methyl-7,11-methanocycloocta[b]quinolin-12-yl)amino]nonyl}-9,10-dihydro-4,5-dihydroxy-9,10-dioxoanthracene-2-carboxamide] had a 50% inhibitory concentration (IC50) of 9.4 ± 1.6 nM. For the same compound, in test [2], the GluA2 protein level entry was “evident effect at 10 and 100 μM”; the PSD95 protein level result was “evident effect at 10 and 100 μM”; the VGlut1 protein level result was “increment for every concentration”; the “synaptophysin (SYP) protein level” value is listed as “no effects were observed”. For the same compound, in the test with APP-PS1 mice (setting [3]), the “area occupied” value was “decrease in the inflammatory response”. In addition, in the test on APP-PS1 mice (setting [4]), the “area occupied” value is on record as “decrease in the inflammatory response”.
